Source: PMC12311259, “Antifibrotic effects of specific targeting of the 5‐hydroxytryptamine 2B receptor (5‐HT2BR) in murine models and ex vivo models of scleroderma skin” (Arthritis & Rheumatology (Hoboken, N.j.), 2025)

Legend:
[1] = biological target: T1, Serotonin (5-Hydroxytryptamine) 5-HT5A (hu) (Homo sapiens, UniProt P47898); experiment: Receptor binding, Eurofins Panlabs 272100
T1 construct: Eurofins Panlabs 272100
Source text: Effects were considered significant if AM1476's mean value was three or more SDs above the vehicle control mean in the agonist assay or three or more SDs below the positive control agonist (5‐nM α‐methylserotonin) mean in the antagonist assay. AM1476 was screened for selectivity against approximately 200 targets using a Eurofins Panlabs Spectrum screen panel including enzymatic and receptor binding assays.

Tsk-1 mice = experiment: Tsk-1 mouse model of skin fibrosis; format: in vivo
Method: AM1476 was dissolved in sterile distilled water for the ex vivo and in vivo experiments. A concentration of 30 μM was applied for the ex vivo experiment. For the in vivo experiments, 1, 3, or 10 mg/kg was administered orally once or twice daily.
In the murine Tsk‐1 model of SSc, a dominant mutation in the fibrillin 1 gene leads to an SSc‐like disease, with minor inflammatory infiltrates, autoantibody production, and fibrosis of the skin. This model reflects the later stages of SSc characterized by noninflammatory self‐sustaining fibrosis. Eight to 12 mice per group were analyzed. Treatment was initiated at an age of five weeks, and the outcome was analyzed at an age of 10 weeks.[11]
Skin samples were fixed in 4% formalin for six hours and embedded in paraffin. Five‐micrometer sections were cut and stained with hematoxylin and eosin (H&E). The dermal thickness was quantified on H&E‐stained sections using images captured with a light microscope (Nikon eclipse 80i) at 100‐fold magnification by manually measuring the distance between the epidermal‐dermal junction and the dermal‐subcutaneous fat junction at four sites per mouse.[15], [16] For lung samples, the whole left lung was fixed in 4% formalin for six hours and embedded in paraffin. Five‐micrometer sections were cut and stained with trichrome and sirius red. Histologic readouts were evaluation of the fibrotic area as the percentage of the total lung area in sirius red–stained sections (two sections per mouse) and quantification of pulmonary changes using the Ashcroft score (four sections per mouse).[17], [18]
The amount of collagen protein in skin and lung samples was determined by hydroxyproline assay.[19], [20] After digestion in 6 M HCl for three hours at 120°C, the pH of the samples was adjusted to a pH range of 6–7 with 6 M NaOH. Afterward, 0.06 M chloramine T was added to each sample and incubated for 20 minutes at room temperature. Next, 3.15 M perchloric acid and 20% p‐dimethylaminobenzaldehyde were added, and samples were incubated for an additional 20 minutes at 60°C. The absorbance was determined at 557 nm with a Spectra MAX 190 microplate spectrophotometer. Absolute values were determined using a standard curved generated with type I collagen (Sigma‐Aldrich).
Myofibroblasts are characterized by the expression of α‐smooth muscle actin (α‐SMA). Fibroblasts positive for α‐SMA were detected by immunohistochemistry staining with monoclonal anti–α‐SMA antibodies (clone 1A4, Sigma‐Aldrich). The expression was visualized with horseradish peroxidase–labeled secondary antibodies and 3,3‐diaminobenzidine tetra hydrochloride (Sigma‐Aldrich). Monoclonal mouse IgG antibodies (Calbiochem) were used as controls. Images of sections stained for α‐SMA were captured on a light microscope (Nikon eclipse 80i). The myofibroblast number was manually evaluated at four different areas at 200‐fold magnification. Myofibroblasts were defined as α‐SMA positive, single, and spindle‐shaped cells in the dermis.[5], [21]

[2] = all three doses, vs vehicle-treated 10-week-old Tsk-1 mice

T1 sequence (P47898 whole entry): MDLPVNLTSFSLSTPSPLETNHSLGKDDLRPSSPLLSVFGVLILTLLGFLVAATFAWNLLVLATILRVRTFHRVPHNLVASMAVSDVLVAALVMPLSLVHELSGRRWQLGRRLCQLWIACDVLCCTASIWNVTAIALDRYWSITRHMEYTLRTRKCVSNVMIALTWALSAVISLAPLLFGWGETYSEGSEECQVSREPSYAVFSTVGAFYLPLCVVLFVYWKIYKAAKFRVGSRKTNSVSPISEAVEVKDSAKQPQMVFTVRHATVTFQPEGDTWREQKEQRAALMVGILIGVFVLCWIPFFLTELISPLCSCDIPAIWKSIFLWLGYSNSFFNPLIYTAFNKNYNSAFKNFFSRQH

C[C@@H]1CN(C(=N)N)N=C1c1ccc(F)cc1O [AM1476]
% Inhibition at 1 µM, 5-HT5A (hu) ([1]; 1 µM (value in brackets)): 10%
% Inhibition at 10 µM, 5-HT5A (hu) ([1]; 10 µM): 70%
hydroxyproline content vs five-week-old Tsk-1 mice (pretreatment level) (Tsk-1 mice; 10 mg/kg qd or 10 mg/kg bid): comparable
hypodermal thickness vs five-week-old Tsk-1 mice (pretreatment level) (Tsk-1 mice; 10 mg/kg qd or 10 mg/kg bid): comparable
hydroxyproline content (Tsk-1 mice; [2]): reduced
hypodermal thickening (Tsk-1 mice; [2]): reduced
myofibroblast counts (Tsk-1 mice; [2]): reduced
